In patent publication US10583121B2, “Patch” (HISAMITSU PHARMACEUTICAL CO., INC., priority 2012, dated 2020):
Structures can show the parent of a compound that is named as a salt.

Assay: Oral (sublingual) administration of 5 mg asenapine maleate, plasma AUC and adverse effects
Format: in vivo, healthy adult men
Protocol: Furthermore, in a case where the patch obtained in Example 1 was administered, the incidence proportion of adverse effects on the cardiovascular system in the AUC measurement test was 6%. Note that when 5 mg of asenapine maleate was orally administered (sublingual administration) to the healthy adult men (18 people), the average value of the area under plasma concentration-time curve of the free asenapine for a period between 10 minutes and 72 hours after the administration (AUC0.17-72) was 32,074 pg·hr/mL, the average value of the AUC0.17-72 of the N-desmethyl asenapine was 14,299 pg·hr/mL, and the incidence proportion of adverse effects on the cardiovascular system was 39%.

Structure (SMILES): CN1C[C@@H]2c3ccccc3Oc3ccc(Cl)cc3[C@H]2C1 (relative stereo) [asenapine maleate, trans-5-chloro-2-methyl-2,3,3a,12b-tetrahydro-1H-dibenz[2,3:6,7]oxepino[4,5-c]pyrrole]
- AUC0.17-72 of the free asenapine (10 minutes to 72 hours after administration): 32,074 pg·hr/mL
- incidence proportion of adverse effects on the cardiovascular system (healthy adult men (18 people)): 39%
